What was measured:
[1] = test system: murine macrophage J774A.1; experiment: Resazurin-based cytotoxicity assay (Alamar blue) in macrophages; assay type: cell-based; conditions: J774A.1, Figure S70
Description: To evaluate the potential antitumoral activity of the compounds, the MTT [3-(4,5-dimethyl-2-thiazolyl)-2,5-diphenyl-2H-tetrazolium bromide] method was used to determine the cell viability of SK-MEL-28 (human melanoma cell line), NCI-H460 (human lung carcinoma cell line), SF295 (human glioblastoma cell line), and HUVEC (human umbilical vein endothelial cells) line. Cell viability analysis of murine macrophage J774A.1 was conducted using a resazurin-based cytotoxicity assay (Alamar blue®). All cell lines were acquired from the BCRJ (Rio de Janeiro Cell Bank, Federal University of Rio de Janeiro, Brazil). […] MTT formazan crystals were dissolved in DMSO, and the absorbance of each well was measured at 540 nm, using a micro-well system reader. […] MTT formazan crystals were dissolved in DMSO, and absorbance was measured at 540 nm using a microplate reader (ELX800, Biotek, Winooski, VT, USA). The half-maximal cytotoxic concentration (CC50) values were calculated from a Hill concentration–response curve. Results were expressed as the mean ± SD of three experiments. The selectivity index (SI) was calculated via the ratio between the CC50 of non-tumoral cells and the tumoral cell lines. […] For the resazurin assay, fluorescence was measured at 1 h intervals using a plate multi-reader (Infinite Multireader m200 Tecan) at 530–590 nm. […]

[2] = test system: SF295 (human glioblastoma cell line); experiment: MTT cell viability, human glioblastoma cells; assay type: cell-based; conditions: 24 h incubation, mean ± SD (n = 3), test concentration not given
Description: (§1) To evaluate the potential antitumoral activity of the compounds, the MTT [3-(4,5-dimethyl-2-thiazolyl)-2,5-diphenyl-2H-tetrazolium bromide] method was used to determine the cell viability of SK-MEL-28 (human melanoma cell line), NCI-H460 (human lung carcinoma cell line), SF295 (human glioblastoma cell line), and HUVEC (human umbilical vein endothelial cells) line. Cell viability analysis of murine macrophage J774A.1 was conducted using a resazurin-based cytotoxicity assay (Alamar blue®). All cell lines were acquired from the BCRJ (Rio de Janeiro Cell Bank, Federal University of Rio de Janeiro, Brazil). The cell lines were cultivated in RPMI-1640 or DMEM medium, supplemented with 1.5 g/L of sodium bicarbonate, 10 mM of HEPES, pH 7.4, 100 U/mL of penicillin G, 100 μg/mL of streptomycin, and 10% fetal calf serum at 37 °C in a humidified atmosphere consisting of 95% air and 5% CO2 cultures, and greater than 95% of viable cells in trypan blue exclusion tests were used for the experiments. Therefore, cells were seeded (1 × 10^4/well) in 96-well plates and incubated with increasing concentrations of the compounds for 24 h. After incubation, the former culture medium was replaced with a fresh culture medium with 5 mg/mL of MTT and with 0.1 mg/mL of resazurin for 2 h at 37 °C. MTT formazan crystals were dissolved in DMSO, and the absorbance of each well was measured at 540 nm, using a micro-well system reader. For the control group of each cell line, cells were incubated without the compounds and considered to have 100% cell viability. MTT formazan crystals were dissolved in DMSO, and absorbance was measured at 540 nm using a microplate reader (ELX800, Biotek, Winooski, VT, USA). The half-maximal cytotoxic concentration (CC50) values were calculated from a Hill concentration–response curve. Results were expressed as the mean ± SD of three experiments. The selectivity index (SI) was calculated via the ratio between the CC50 of non-tumoral cells and the tumoral cell lines. […] For the resazurin assay, fluorescence was measured at 1 h intervals using a plate multi-reader (Infinite Multireader m200 Tecan) at 530–590 nm. Nonlinear regression of each fraction versus percentage cell viability was performed to obtain a 10% toxicity concentration (a concentration causing 90% cell viability) using GraphPad Prism 8.0 software (GraphPad Software, San Diego, CA, USA).

[3] = test system: NCI-H460 (human lung carcinoma cell line); experiment: MTT cell viability, human lung carcinoma cells; assay type: cell-based; conditions: 24 h incubation, mean ± SD (n = 3), test concentration not given
Description: as §1

[4] = test system: LPS-stimulated M1 macrophages J774A.1 (NOx); experiment: Total nitrite nitrate (NOx) release from LPS-stimulated macrophages (Griess); assay type: cell-based, murine
Description: (§2) The in vitro anti-inflammatory activity was performed in murine macrophage J774A.1 and analyzed after modifications to the protocol previously described by […] and coworkers. The evaluation consisted of measuring the production of nitrite through an indicator of NO synthesis in supernatants from LPS-activated macrophages. A number of 1 × 10^5 cells/well were seeded in 96-well plates for 24 h, after which time the culture medium was changed, and the CC10 concentration (Figure S70, found in the Supplementary Materials) of each compound was added to the medium containing DMEM supplemented with 10% FBS. After 15 min, macrophages were stimulated with 10 μg/mL of LPS and incubated for 24 h to obtain a proinflammatory M1-phenotype. Subsequently, supernatants were collected and total nitrite nitrate (NOx) was measured by adding 100 μL of Griess' reagent (1% sulfanilamide and 0.1% N-(1-naphthyl) ethylenediamine in 0.5% phosphoric acid). Absorbance was determined with a microplate reader (ELX800, BioTek, Winooski, VT, USA) at 540 nm. In addition, the proinflammatory cytokine IL-6 was determined using an enzyme-linked immunosorbent assay (ELISA) (BD Bioscience, San Jose, CA, USA) according to the manufacturer's instructions.

[5] = test system: LPS-stimulated M1 macrophages J774A.1 (IL-6); experiment: Interleukin-6 release from LPS-stimulated macrophages (ELISA); assay type: cell-based, murine
Description: as §2

[6] = MTT cytotoxicity, non-tumoral endothelial cells; assay type: cell-based, human; conditions: human, HUVEC cells (non-tumoral), pH 7.4
Description: as §1

[7] = test system: SK-MEL-28 (human melanoma cell line); experiment: MTT cell viability / cytotoxicity, human melanoma cells; assay type: cell-based; conditions: for CC50 / Viability (%) SK-MEL-28: MTT; for CC50: 24 h, half-maximal cytotoxic concentration; for Viability (%) SK-MEL-28: 24 h incubation, mean ± SD (n = 3), test concentration not given
Description: as §1

[8] = test system: HUVEC (human umbilical vein endothelial cells); experiment: MTT cytotoxicity, non-tumoral endothelial cells; assay type: cell-based; conditions: 24 h
Description: as §1

[9] = compound at CC10, pre-treatment 15 min, LPS 10 μg/mL, 24 h

Row | Molecule | Cytotoxicity against macrophages (in words) [1] | Viability (%) SF295 [2] [%] | Viability (%) NCI-H460 [3] [%] | Anti-inflammatory activity, NOx release (in words) ([4]; compound at CC10, LPS 10 μg/mL) | Reduction of NOx release vs control M1 cells (LPS+ group) [4, 9] [%] | Anti-inflammatory activity, IL-6 release (in words) ([5]; compound at CC10, LPS 10 μg/mL) | Reduction of IL-6 release vs control M1 cells (LPS+ group) [5, 9] [%] | CC50 at 24 h [6] [µM] | CC50 ([7]; Homo sapiens, SK-MEL-28) [µM] | Viability (%) SK-MEL-28 [7] [%] | SI (selectivity index) SK-MEL-28 ([7]; ratio of CC50 of non-tumoral HUVEC cells to CC50 of SK-MEL-28) | CC50 [8] [µM] | CC50 [7] [µM]
1 | CC(=O)OCC1=C2C(OC(C)=O)CC(C)(OC(C)=O)C3(O)CCC(C)(O3)C(OC(C)=O)C2OC1=O (stereo not shown) [Compound 7a, 5-acetoxy-hirsutinolide] | less cytotoxicity against macrophages | 86.9 ± 4.3 | 74.6 ± 1.3 | strongly reduced | ~77 | strongly reduced | ~77 | 12.7 | 5 | 17.1 ± 3.3 | 2.5 | – | –
2 | glaucolide A [Compound 11, reference compound] | – | 91.8 ± 3.3 | 95.1 ± 4.6 | – | – | – | – | – | – | 56.3 ± 1.4 | – | 20.4 | 14.6

Source: publication PMC9921329, “Semisynthetic Sesquiterpene Lactones Generated by the Sensibility of Glaucolide B to Lewis and Brønsted–Lowry Acids and Bases: Cytotoxicity and Anti-Inflammatory Activities” (Molecules, 2023)
